Laboratory results from patent US20240390298A1, “CYCLOHEXYL BETA-HYDROXY ALKYL AMINES AND MEDICAL USES THEREOF” (ATROGI AB, priority 2021, published 2024).
Counter-ions that a name gives are not always drawn.

Experiments:
L6-myotubes [1] = assay: Glucose uptake in differentiated L6-myotubes (3H-2-deoxyglucose), compared to isoproterenol; assay type: cell-based; details: agonist 1×10^−5 M, 50 nM 3H-2-deoxyglucose; for Emax at 10 µM: read-out: Biological example 1: glucose uptake, activity compared to that of isoproterenol
Protocol: (§1) L6-myoblasts were grown in Dulbecco's Modified Eagle's Medium (DMEM) containing 1 g/L glucose supplemented with 10% fetal bovine serum, 2 mM L-Glutamine, 50 U/mL penicillin, 50 μg/mL streptomycin and 10 mM HEPES. Cells were plated at 1×10^5 cells per mL in 24-well plates. After reaching 90% confluence the cells were grown in medium containing 2% FBS for 7 days where upon cells differentiated into myotubes.
Differentiated L6-myotubes were serum-starved overnight in medium containing 0.5% fatty-acid free BSA and stimulated with an agonist, with a final concentration of 1×10^−5 M. After 1 h 40 min the cells were washed with warm glucose free medium or PBS twice and another portion of agonist was added to the glucose free medium. After 20 min the cells were exposed to 50 nM ^3H-2-deoxyglucose for 10 min before washed with ice cold glucose free medium or PBS three times and lysed with 0.2 M NaOH, 400 μL/well, for 1 h at 60° C. The cell lysate was mixed with 4 mL scintillation buffer (Emulsifier Safe, Perkin Elmer) and the radioactivity was detected in a β-counter (Tri-Carb 4810TR, Perkin Elmer). The activity for each compound is compared to that of isoproterenol.

L6-myotubes [2] = assay: Measurement of intracellular cAMP levels in differentiated L6 cells (alpha screen cAMP kit), compared to isoproterenol; assay type: cell-based; details: Rattus norvegicus, L6, 0.25 h, agonist 1×10^−5 M, 15 min, read-out: Biological example 2: intracellular cAMP levels, activity compared to that of isoproterenol
Protocol: as §1
Differentiated cells were serum-starved overnight and stimulated with an agonist, final concentration 1×10^−5 M, for 15 min in stimulation buffer (HBSS supplemented with 1% BSA, 5 mM HEPES and 1 mM IBMX, pH 7.4). The medium was aspirated and 100 μL of 95% EtOH was added to each well of the 24-well plate and cells were kept at −20° C. overnight. The EtOH was allowed to evaporate and 500 μL of lysis buffer (1% BSA, 5 mM HEPES and 0.3% Tween-20, pH 7.4) was added to each well. The plate was kept at −80° C. for 30 min and then at −20° C. until the day of detection when the samples were thawed. Intracellular cAMP levels were detected using an alpha screen cAMP kit (6760635D from Perkin Elmer). The activity for each compound is compared to that of isoproterenol.

| Compound | Emax at 10 µM (L6-myotubes [1]) [%] | Emax at 10 µM (L6-myotubes [2]) [%] | Biological example 1: glucose uptake, activity compared to that of isoproterenol (L6-myotubes [1]) |
| --- | --- | --- | --- |
| CC(C)(NC[C@H](O)c1cccc(F)c1)[C@H]1CC[C@H](C(=O)O)CC1 [Example 101, (1R,4r)-4-(2-(((R)-2-(3-Fluorophenyl)-2-hydroxyethyl)amino)propan-2-yl)cyclohexane-1-carboxylic acid] | < 25 | < 25 |  |
| CC(C)(CC[C@H]1CC[C@@H](C(=O)O)CC1)NC[C@H](O)c1cncc(F)c1 [Example 114, (1S,4s)-4-(3-(((R)-2-(5-Fluoropyridin-3-yl)-2-hydroxyethyl)amino)-3-methylbutyl)cyclohexane-1-carboxylic acid] |  | < 25 | + + + |
| CC(C)(C[C@H]1CC[C@H](S(N)(=O)=O)CC1)NC[C@H](O)c1cccc(F)c1.Cl [Example 194, (1R,4r)-4-(2-(((R)-2-(3-Fluorophenyl)-2-hydroxyethyl)amino)-2-methylpropyl)cyclohexane-1-sulfonamide hydrochloride] |  | < 25 | + + + |
| CC(C)(C[C@H]1CC[C@@H](O)CC1)NC[C@H](O)c1cncc(F)c1.Cl [Example 50, (1S,4s)-4-(2-(((R)-2-(5-Fluoropyridin-3-yl)-2-hydroxyethyl)amino)-2-methylpropyl)cyclohexan-1-ol hydrochloride] |  | < 25 | + + + |
| CO[C@H]1CC[C@H](CNC[C@H](O)c2cncc(F)c2)CC1 [Example 4, (R)-1-(5-Fluoropyridin-3-yl)-2-((((1r,4R)-4-methoxycyclohexyl)-methyl)amino)ethan-1-ol] |  | < 25 | + + |
| CC(=O)N[C@H]1CC[C@H](CNC[C@H](O)c2cncc(F)c2)CC1 [Example 68, N-((1R,4r)-4-((((R)-2-(5-Fluoropyridin-3-yl)-2-hydroxyethyl)amino)-methyl)cyclohexyl)acetamide] | 25 to 50 | < 25 |  |
| CC(C)(C[C@H]1CC[C@H](N)CC1)NC[C@@H](O)c1cccc(C#N)n1 [Example 130, 6-((R)-2-((1-((1r,4R)-4-Aminocyclohexyl)-2-methylpropan-2-yl)amino)-1-hydroxyethyl)picolinonitrile trihydrochloride] |  | < 25 | + + |
| CC(=O)N[C@H]1CC[C@H](CC(C)(C)NC[C@H](O)c2cncc(F)c2)CC1 [Example 87, N-((1R,4r)-4-(2-(((R)-2-(5-Fluoropyridin-3-yl)-2-hydroxyethyl)amino)-2-methylpropyl)cyclohexyl)acetamide] |  | < 25 | + + + |
| CC(=O)N[C@H]1CC[C@H](CC(C)(C)NC[C@H](O)c2cccc(C#N)n2)CC1 [Example 139, N-((1S,4r)-4-(2-(((S)-2-(6-Cyanopyridin-2-yl)-2-hydroxyethyl)amino)-2-methylpropyl)cyclohexyl)acetamide] |  | 25 to 50 | + + + |
| CS(=O)(=O)N[C@H]1CC[C@@H](CNC[C@H](O)c2cccc(F)c2)CC1 [Example 77] |  | < 25 | + + |
| CO[C@H]1CC[C@H](CC(C)(C)NC[C@H](O)c2cncc(F)c2)CC1 [Example 16, (R)-1-(5-Fluoropyridin-3-yl)-2-((1-((1r,4R)-4-methoxycyclohexyl)-2-methyl-propan-2-yl)amino)ethan-1-ol] |  | < 25 | + + |
| CC(C)(C[C@H]1CC[C@@H](NC(=O)C(C)(C)C)CC1)NC[C@H](O)c1cccc(F)c1 [Example 165, N-((1S,4s)-4-(2-(((R)-2-(3-Fluorophenyl)-2-hydroxyethyl)amino)-2-methylpropyl)cyclohexyl)pivalamide hydrochloride] |  | < 25 | + + + |
| CO[C@H]1CC[C@@H](CCNC[C@H](O)c2cccc(F)c2)CC1 [Example 9, (R)-1-(3-Fluorophenyl)-2-((2-((1s,4S)-4-methoxycyclohexyl)ethyl)amino)-ethan-1-ol] |  | < 25 | + + |
| CC(C)(C[C@H]1CC[C@@H](NC(=O)C2CC2)CC1)NC[C@H](O)c1cccc(F)c1 [Example 166, N-((1S,4s)-4-(2-(((R)-2-(3-Fluorophenyl)-2-hydroxyethyl)amino)-2-methylpropyl)cyclohexyl)cyclopropanecarboxamide hydrochloride] |  | < 25 | + + + |
| CC(C)(C[C@H]1CC[C@H](NC(=O)OC(C)(C)C)CC1)NC[C@H](O)c1cccc(C(F)(F)F)n1 [Example 148, tert-Butyl ((1S,4r)-4-(2-(((S)-2-hydroxy-2-(6-(trifluoromethyl)pyridin-2-yl)ethyl)amino)-2-methylpropyl)cyclohexyl)carbamate] |  | < 25 | + + + |
| CC(C)(CC[C@H]1CC[C@H](C(=O)O)CC1)NC[C@H](O)c1cccc(F)c1 [Example 117, (1R,4r)-4-(3-(((R)-2-(3-Fluorophenyl)-2-hydroxyethyl)amino)-3-methyl-butyl)cyclohexane-1-carboxylic acid] | < 25 | < 25 |  |
| CC(C)(C[C@H]1CC[C@@H](NS(C)(=O)=O)CC1)NC[C@H](O)c1cncc(F)c1 [Example 177, N-((1S,4s)-4-(2-(((R)-2-(5-Fluoropyridin-3-yl)-2-hydroxyethyl)amino)-2-methylpropyl)cyclohexyl)methanesulfonamide] |  | < 25 | + + + |
| CO[C@H]1CC[C@@H](CC(C)(C)NC[C@H](O)c2cccc(F)c2)CC1 [Example 13, (R)-1-(3-Fluorophenyl)-2-((1-((1s,4S)-4-methoxycyclohexyl)-2-methyl-propan-2-yl)amino)ethan-1-ol] |  | < 25 | + + + |
| COC(=O)[C@H]1CC[C@@H](C(C)(C)NC[C@H](O)c2cccc(F)c2)CC1 [Example 95, Methyl (1S,4s)-4-(2-(((R)-2-(3-Fluorophenyl)-2-hydroxyethyl)amino)-propan-2-yl)cyclohexane-1-carboxylate] |  |  | + + + |
| CNS(=O)(=O)[C@H]1CC[C@@H](CC(C)(C)NC[C@H](O)c2cncc(F)c2)CC1 [Example 193, (1S,4s)-4-(2-(((R)-2-(5-Fluoropyridin-3-yl)-2-hydroxyethyl)amino)-2-methylpropyl)-N-methylcyclohexane-1-sulfonamide dihydrochloride] |  | < 25 | + + + |
| COC(=O)[C@H]1CC[C@@H](CCC(C)(C)NC[C@H](O)c2cccc(F)c2)CC1 [Example 111, Methyl (1S,4s)-4-(3-(((R)-2-(3-fluorophenyl)-2-hydroxyethyl)amino)-3-methylbutyl)cyclohexane-1-carboxylate] |  | 25 to 50 | + + + |
| CC(C)(CC[C@H]1CC[C@@H](O)CC1)NC[C@H](O)c1cccc(F)c1 [Example 64, (1R,4s)-4-(3-(((R)-2-(3-Fluorophenyl)-2-hydroxyethyl)amino)-3-methyl-butyl)cyclohexan-1-ol] |  | < 25 | + + + |
| CO[C@@H]1CCC[C@H](C(C)(C)NC[C@H](O)c2cccc(F)c2)C1 (single isomer, unassigned) [Example 119] |  | < 25 | + + + |
| CC(=O)N[C@H]1CC[C@@H](CC(C)(C)NC[C@@H](O)c2cccc(C#N)n2)CC1 [Example 137, N-((1S,4s)-4-(2-(((R)-2-(6-Cyanopyridin-2-yl)-2-hydroxyethyl)amino)-2-methylpropyl)cyclohexyl)acetamide] |  | < 25 | + + |
| COC(=O)[C@H]1CC[C@@H](C(C)(C)NC[C@H](O)c2cncc(F)c2)CC1 [Example 96, Methyl (1S,4s)-4-(2-(((R)-2-(5-Fluoropyridin-3-yl)-2-hydroxyethyl)amino)-propan-2-yl)cyclohexane-1-carboxylate] |  |  | + + |
